Source: patent US9505786B2, “Substituted annulated triazines and use thereof” (BAYER INTELLECTUAL PROPERTY GMBH, priority 2012, dated 2016)
pIC50: −log10 of the molar value.

Experiments:
[1] = system: recombinant guanylate cyclase reporter cell line; experiment: Effect on a recombinant guanylate cyclase reporter cell line; type: cell-based
Description: B-2. Effect on a Recombinant Guanylate Cyclase Reporter Cell Line
The cellular activity of the compounds according to the invention is determined using a recombinant guanylate cyclase reporter cell line, as described in F. Wunder et al., Anal. Biochem. 339, 104-112 (2005).

[2] = biological target: human phosphodiesterase 5 (PDE 5) (Homo sapiens (Human), UniProt O76074); experiment: Inhibition of human phosphodiesterase 5 (PDE 5), SPA assay; type: biochemical; settings: PDE 5 preparation from human platelets, [8-3H] cGMP substrate
Description: B-6. Inhibition of Human Phosphodiesterase 5 (PDE 5)
PDE 5 preparations are obtained from human platelets by disruption (Microfluidizer®, 800 bar, 3 passes), followed by centrifugation (75 000 g, 60 min, 4° C.) and ion exchange chromatography of the supernatant on a Mono Q 10/10 column (linear sodium chloride gradient, elution with a 0.2-0.3M solution of sodium chloride in buffer (20 mM Hepes pH 7.2, 2 mM magnesium chloride). Fractions having PDE 5 activity are combined (PDE 5 preparation) and stored at −80° C.
To determine their in vitro action on human PDE 5, the test substances are dissolved in 100% DMSO and serially diluted. Typically, dilution series (1:3) from 200 μM to 0.091 μM are prepared (resulting final concentrations in the test: 4 μM to 0.0018 μM). In each case 2 μl of the diluted substance solutions are placed into the wells of microtitre plates (Isoplate-96/200W; Perkin Elmer). Subsequently, 50 μl of a dilution of the above-described PDE 5 preparation are added. The dilution of the PDE 5 preparation is chosen such that during the later incubation less than 70% of the substrate are converted (typical dilution: 1:100; dilution buffer: 50 mM Tris/hydrochloric acid pH 7.5, 8.3 mM magnesium chloride, 1.7 mM EDTA, 0.2% BSA). The substrate, [8-^3H] cyclic guanosine-3′,5′-monophosphate (1 μCi/μl; Perkin Elmer) is diluted 1:2000 with assay buffer (50 mM tris/hydrochloric acid pH 7.5, 8.3 mM magnesium chloride, 1.7 mM EDTA) to a concentration of 0.0005 μCi/μl. By addition of 50 μl (0.025 μCi) of the diluted substrate, the enzyme reaction is finally started. The test mixtures are incubated at room temperature for 60 min and the reaction is stopped by adding 25 μl of a suspension of 18 mg/ml yttrium scintillation proximity beads in water (phosphodiesterase beads for SPA assays, RPNQ 0150, Perkin Elmer). The microtitre plates are sealed with a film and left to stand at room temperature for 60 min. Subsequently, the plates are analysed for 30 s per well in a Microbeta scintillation counter (Perkin Elmer). IC50 values are determined using the graphic plot of the substance concentration against percentage PDE 5 inhibition.

| SMILES | MEC (minimum effective concentration) [1] | pIC50 [2] |
| --- | --- | --- |
| CC1(CC2CC2)C(=O)Nc2nc(-c3nn(Cc4ccccc4F)c4ncc(F)cc34)nnc21 (racemic) [Example 5-1, 7-(Cyclopropylmethyl)-3-[5-fluoro-1-(2-fluorobenzyl)-1H-pyrazolo[3,4-b]pyridin-3-yl]-7-methyl-5,7-dihydro-6H-pyrrolo[2,3-e][1,2,4]triazin-6-one] | 100 nM |  |
| CC1(CC2CC2)C(=O)Nc2nc(-c3nn(Cc4ccccc4F)c4ncc(F)cc34)nnc21 (racemic) [Example 5-2, 7-(Cyclopropylmethyl)-3-[5-fluoro-1-(2-fluorobenzyl)-1H-pyrazolo[3,4-b]pyridin-3-yl]-7-methyl-5,7-dihydro-6H-pyrrolo[2,3-e][1,2,4]triazin-6-one] | 300 nM |  |
| CCC1(C)C(=O)Nc2nc(-c3nn(Cc4ccccc4F)c4ncc(F)cc34)nnc21 (racemic) [Example 7-1, 7-Ethyl-3-[5-fluoro-1-(2-fluorobenzyl)-1H-pyrazolo[3,4-b]pyridin-3-yl]-7-methyl-5,7-dihydro-6H-pyrrolo[2,3-e][1,2,4]triazin-6-one] | 100 nM |  |
| CCC1(C)C(=O)Nc2nc(-c3nn(Cc4ccccc4F)c4ncc(F)cc34)nnc21 (racemic) [Example 7-2, 7-Ethyl-3-[5-fluoro-1-(2-fluorobenzyl)-1H-pyrazolo[3,4-b]pyridin-3-yl]-7-methyl-5,7-dihydro-6H-pyrrolo[2,3-e][1,2,4]triazin-6-one] | 100 nM |  |
| C=CCCC1(C)C(=O)Nc2nc(-c3nn(Cc4ccccc4F)c4ncccc34)nnc21 (racemic) [Example 23, (rac) (7S)-7-(But-3-en-1-yl)-3-[1-(2-fluorobenzyl)-1H-pyrazolo[3,4-b]pyridin-3-yl]-7-methyl-5,7-dihydro-6H-pyrrolo[2,3-e][1,2,4]triazin-6-one] | 30 nM | 6.85 |
| CCOC(=O)C1C(=O)Nc2nc(-c3nn(Cc4ccccc4F)c4ncccc34)nnc21 (racemic) [Example 25, (rac) Ethyl 3-[1-(2-fluorobenzyl)-1H-pyrazolo[3,4-b]pyridin-3-yl]-6-oxo-6,7-dihydro-5H-pyrrolo[2,3-e][1,2,4]triazine-7-carboxylate] | 100 nM | 5.82 |
| CC1(CC(=O)O)C(=O)Nc2nc(-c3nn(Cc4ccccc4F)c4ncccc34)nnc21 (racemic) [Example 26, (rac) {3-[1-(2-Fluorobenzyl)-1H-pyrazolo[3,4-b]pyridin-3-yl]-7-methyl-6-oxo-6,7-dihydro-5H-pyrrolo[2,3-e][1,2,4]triazin-7-yl}acetic acid] | 300 nM | 5.47 |
| CCOC(=O)C1(C)C(=O)Nc2nc(-c3nn(Cc4ccccc4F)c4ncccc34)ncc21 (racemic) [Example 33, (rac) Ethyl 2-[1-(2-fluorobenzyl)-1H-pyrazolo[3,4-b]pyridin-3-yl]-5-methyl-6-oxo-6,7-dihydro-5H-pyrrolo[2,3-d]pyrimidine-5-carboxylate] | 10 nM | 6.06 |
| CC1(C(=O)NC2CC2)C(=O)Nc2nc(-c3nn(CCC(F)(F)F)c4ncccc34)ncc21 (racemic) [Example 49, (rac) N-Cyclopropyl-5-methyl-6-oxo-2-[1-(3,3,3-trifluoropropyl)-1H-pyrazolo[3,4-b]pyridin-3-yl]-6,7-dihydro-5H-pyrrolo[2,3-d]pyrimidine-5-carboxamide] | 300 nM | 5.40 |
| CC1(CC(=O)O)C(=O)Nc2nc(-c3nn(Cc4ccccc4F)c4ncc(F)cc34)nnc21 (racemic) [Example 52, (rac){3-[5-Fluoro-1-(2-fluorobenzyl)-1H-pyrazolo[3,4-b]pyridin-3-yl]-7-methyl-6-oxo-6,7-dihydro-5H-pyrrolo[2,3-e][1,2,4]triazin-7-yl}acetic acid] | 1000 nM | 5.41 |
| CCOC(=O)C1(C)CC(=O)Nc2nc(-c3nn(Cc4ccccc4F)c4ncccc34)nnc21 (centres unmarked) [Example 2, Ethyl 3-[1-(2-fluorobenzyl)-1H-pyrazolo[3,4-b]pyridin-3-yl]-8-methyl-6-oxo-5,6,7,8-tetrahydropyrido[2,3-e][1,2,4]triazine-8-carboxylate] | 300 nM | 6.31 |
| COc1ccc(Cn2nc(-c3nnc4c(n3)NC(=O)C4(C)C)c3cc(F)cnc32)cc1 [Example 8, 3-[5-Fluoro-1-(4-methoxybenzyl)-1H-pyrazolo[3,4-b]pyridin-3-yl]-7,7-dimethyl-5,7-dihydro-6H-pyrrolo[2,3-e][1,2,4]triazin-6-one] | 3000 nM | 6.82 |
| CC1(C)C(=O)Nc2nc(-c3nn(Cc4ccccc4F)c4nc(C(F)(F)F)ccc34)nnc21 [Example 19, 3-[1-(2-Fluorobenzyl)-6-(trifluoromethyl)-1H-pyrazolo[3,4-b]pyridin-3-yl]-7,7-dimethyl-5,7-dihydro-6H-pyrrolo[2,3-e][1,2,4]triazin-6-one] | 1000 nM | 7.42 |
| Cc1nc2c(cc1F)c(-c1nnc3c(n1)NC(=O)C3(C)C)nn2Cc1ccccc1F [Example 21, 3-[5-Fluoro-1-(2-fluorobenzyl)-6-methyl-1H-pyrazolo[3,4-b]pyridin-3-yl]-7,7-dimethyl-5,7-dihydro-6H-pyrrolo[2,3-e][1,2,4]triazin-6-one] | 30 nM | 7.66 |
| Cc1nc(-c2nn(Cc3ccccc3F)c3ncccc23)nc2c1C(C)(C)C(=O)N2 [Example 22, 2-[1-(2-Fluorobenzyl)-1H-pyrazolo[3,4-b]pyridin-3-yl]-4,5,5-trimethyl-5,7-dihydro-6H-pyrrolo[2,3-d]pyrimidin-6-one] | 100 nM | 6.89 |
| CC1(C)C(=O)Nc2nc(-c3nn(Cc4ccccc4F)c4ncccc34)nc(CNS(C)(=O)=O)c21 [Example 24, N-({2-[1-(2-Fluorobenzyl)-1H-pyrazolo[3,4-b]pyridin-3-yl]-5,5-dimethyl-6-oxo-6,7-dihydro-5H-pyrrolo[2,3-d]pyrimidin-4-yl}methyl)methanesulphonamide] | 30 nM | 7.32 |
| CCOC(=O)/C=C/c1nc(-c2nn(Cc3ccccc3F)c3ncccc23)nc2c1C(C)(C)C(=O)N2 [Example 27, Ethyl 3-{2-[1-(2-fluorobenzyl)-1H-pyrazolo[3,4-b]pyridin-3-yl]-5,5-dimethyl-6-oxo-6,7-dihydro-5H-pyrrolo[2,3-d]pyrimidin-4-yl}acrylate] | 300 nM | 6.67 |
| CC(C)(C)OC(=O)C#Cc1nc(-c2nn(Cc3ccccc3F)c3ncccc23)nc2c1C(C)(C)C(=O)N2 [Example 50, tert-Butyl 3-{2-[1-(2-fluorobenzyl)-1H-pyrazolo[3,4-b]pyridin-3-yl]-5,5-dimethyl-6-oxo-6,7-dihydro-5H-pyrrolo[2,3-d]pyrimidin-4-yl}prop-2-ynoate] | 300 nM |  |
| CC1(C)C(=O)Nc2nc(-c3nn(Cc4ccccc4F)c4ncc(F)cc34)nc(CNC(=O)C3CC3)c21 [Example 56, N-({2-[5-Fluoro-1-(2-fluorobenzyl)-1H-pyrazolo[3,4-b]pyridin-3-yl]-5,5-dimethyl-6-oxo-6,7-dihydro-5H-pyrrolo[2,3-d]pyrimidin-4-yl}methyl)cyclopropanecarboxamide] | 30 nM |  |
| CC(C)(O)CCc1nc(-c2nn(Cc3ccccc3F)c3ncccc23)nc2c1C(C)(C)C(=O)N2 [Example 59, 2-[1-(2-Fluorobenzyl)-1H-pyrazolo[3,4-b]pyridin-3-yl]-4-(3-hydroxy-3-methylbutyl)-5,5-dimethyl-5,7-dihydro-6H-pyrrolo[2,3-d]pyrimidin-6-one] | 300 nM |  |
| CC1(C)C(=O)Nc2nc(-c3nn(Cc4ccccc4F)c4ncccc34)nc(Cl)c21 [Example 60, 4-Chloro-2-[1-(2-fluorobenzyl)-1H-pyrazolo[3,4-b]pyridin-3-yl]-5,5-dimethyl-5,7-dihydro-6H-pyrrolo[2,3-d]pyrimidin-6-one] | 300 nM |  |
| CC1(C)C(=O)Nc2nc(-c3nn(Cc4ccccc4F)c4ncccc34)nc(C#CC(=O)O)c21 [Example 62, 3-{2-[1-(2-Fluorobenzyl)-1H-pyrazolo[3,4-b]pyridin-3-yl]-5,5-dimethyl-6-oxo-6,7-dihydro-5H-pyrrolo[2,3-d]pyrimidin-4-yl}prop-2-ynoic acid] | 30 nM |  |
